Assay results reported in ChEMBL document CHEMBL1146845, “Structural determinants for N1/N7 cyclization of nicotinamide hypoxanthine 5'-dinucleotide (NHD+) derivatives by ADP-ribosyl cyclase from aplysia californica: Ca2+-mobilizing activity of 8-substituted cyclic inosine 5'-diphosphoribose analogues in T-lymphocytes” (J Med Chem, 2006).
Activity calls are given as the source filed them. The rule behind the calls is not given here.

System: Jurkat
Experiment: Induction of calcium ion mobilization in intact Jurkat cells
Assay type: functional, cell-based
Conditions: Homo sapiens

| SMILES | Activity |
| --- | --- |
| O=c1c2nc(I)n3c2ncn1[C@@H]1O[C@H](COP(=O)(O)OP(=O)(O)OC[C@H]2O[C@@H]3[C@H](O)[C@@H]2O)[C@@H](O)[C@H]1O | Active |
| O=c1c2nc(-c3ccccc3)n3c2ncn1[C@@H]1O[C@H](COP(=O)(O)OP(=O)(O)OC[C@H]2O[C@@H]3[C@H](O)[C@@H]2O)[C@@H](O)[C@H]1O | Active |
